Data: PMC3082441 (Journal of medicinal chemistry, 2008)
Where two headings read alike, the source gives them in different places.

Experiments:
[1] = tested on: human sAC; details: read-out: reported IC50 against human sAC; cited from earlier work
[2] = target: T1, CyaC (Limnospira platensis, UniProt O32393); details: cited from earlier work
[3] = tested on: endogenous tmACs expressed in HEK293T cells; type: biochemical, mammalian; details: 100 μM compound
[4] = target: T1, CyaC
[5] = target: AC1 (Homo sapiens, UniProt Q08828); details: 100 μM compound; forskolin-stimulated; transfected HEK293T lysate
Chain of AC1 (Q08828 whole entry): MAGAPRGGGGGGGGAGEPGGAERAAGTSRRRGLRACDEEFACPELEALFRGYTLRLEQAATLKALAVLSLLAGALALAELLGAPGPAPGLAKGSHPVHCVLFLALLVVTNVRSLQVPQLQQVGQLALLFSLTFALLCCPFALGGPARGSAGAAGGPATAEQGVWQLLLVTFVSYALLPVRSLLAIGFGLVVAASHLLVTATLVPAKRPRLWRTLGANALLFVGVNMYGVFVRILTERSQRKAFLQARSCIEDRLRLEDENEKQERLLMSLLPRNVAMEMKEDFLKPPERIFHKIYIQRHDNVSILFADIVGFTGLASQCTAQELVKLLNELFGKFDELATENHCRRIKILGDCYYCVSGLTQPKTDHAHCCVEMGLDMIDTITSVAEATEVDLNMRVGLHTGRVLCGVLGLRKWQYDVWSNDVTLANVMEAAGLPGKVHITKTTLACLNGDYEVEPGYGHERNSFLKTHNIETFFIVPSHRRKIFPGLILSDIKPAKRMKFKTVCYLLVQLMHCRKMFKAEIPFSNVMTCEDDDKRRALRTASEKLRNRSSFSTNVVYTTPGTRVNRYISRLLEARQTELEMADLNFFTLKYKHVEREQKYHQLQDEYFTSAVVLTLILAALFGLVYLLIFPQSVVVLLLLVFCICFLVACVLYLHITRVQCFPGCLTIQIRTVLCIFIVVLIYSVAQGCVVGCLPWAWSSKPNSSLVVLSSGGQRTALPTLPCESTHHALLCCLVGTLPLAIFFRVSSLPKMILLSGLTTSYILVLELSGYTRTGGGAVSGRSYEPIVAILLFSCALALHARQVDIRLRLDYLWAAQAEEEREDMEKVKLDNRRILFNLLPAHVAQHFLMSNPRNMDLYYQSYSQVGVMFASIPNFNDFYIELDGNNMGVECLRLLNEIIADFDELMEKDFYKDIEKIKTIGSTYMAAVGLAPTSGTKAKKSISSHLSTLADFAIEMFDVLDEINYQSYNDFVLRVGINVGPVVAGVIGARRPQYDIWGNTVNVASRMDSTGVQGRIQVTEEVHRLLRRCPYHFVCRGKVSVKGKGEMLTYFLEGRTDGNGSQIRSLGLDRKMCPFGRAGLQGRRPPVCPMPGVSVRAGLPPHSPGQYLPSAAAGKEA

[6] = target: AC5 (Homo sapiens, UniProt O95622); details: 100 μM compound; forskolin-stimulated; transfected HEK293T lysate
Chain of AC5 (O95622 whole entry, species assumed): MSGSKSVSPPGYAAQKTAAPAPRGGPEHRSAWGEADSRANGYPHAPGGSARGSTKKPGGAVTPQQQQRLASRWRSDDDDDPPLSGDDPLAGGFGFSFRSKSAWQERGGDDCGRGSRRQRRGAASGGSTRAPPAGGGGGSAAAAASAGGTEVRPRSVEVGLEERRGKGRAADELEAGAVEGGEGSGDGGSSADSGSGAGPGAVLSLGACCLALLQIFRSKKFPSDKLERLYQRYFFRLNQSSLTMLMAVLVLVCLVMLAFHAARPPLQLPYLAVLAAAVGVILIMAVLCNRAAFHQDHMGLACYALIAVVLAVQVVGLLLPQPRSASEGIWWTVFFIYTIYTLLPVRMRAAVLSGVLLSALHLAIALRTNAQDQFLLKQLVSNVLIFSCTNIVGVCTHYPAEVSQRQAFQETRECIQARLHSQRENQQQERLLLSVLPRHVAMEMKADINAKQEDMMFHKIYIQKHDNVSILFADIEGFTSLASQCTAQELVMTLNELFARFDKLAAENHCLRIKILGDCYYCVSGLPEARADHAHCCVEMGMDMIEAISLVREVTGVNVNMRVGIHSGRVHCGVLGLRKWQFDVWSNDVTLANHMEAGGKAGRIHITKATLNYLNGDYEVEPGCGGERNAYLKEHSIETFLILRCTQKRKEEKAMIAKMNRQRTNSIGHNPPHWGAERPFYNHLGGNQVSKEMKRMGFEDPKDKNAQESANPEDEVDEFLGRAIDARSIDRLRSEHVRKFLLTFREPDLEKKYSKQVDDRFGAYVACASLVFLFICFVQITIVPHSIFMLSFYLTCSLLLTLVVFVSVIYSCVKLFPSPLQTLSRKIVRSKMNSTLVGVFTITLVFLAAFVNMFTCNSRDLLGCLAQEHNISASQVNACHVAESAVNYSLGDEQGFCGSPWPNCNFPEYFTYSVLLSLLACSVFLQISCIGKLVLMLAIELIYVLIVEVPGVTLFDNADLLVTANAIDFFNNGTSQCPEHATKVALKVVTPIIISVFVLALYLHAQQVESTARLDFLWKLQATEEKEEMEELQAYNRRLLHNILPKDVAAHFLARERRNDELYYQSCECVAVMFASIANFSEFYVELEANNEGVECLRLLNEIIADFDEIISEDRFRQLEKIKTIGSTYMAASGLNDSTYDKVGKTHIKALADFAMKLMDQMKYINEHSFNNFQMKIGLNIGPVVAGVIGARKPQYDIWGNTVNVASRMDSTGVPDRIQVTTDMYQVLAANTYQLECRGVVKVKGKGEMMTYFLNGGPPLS

[7] = target: T2, AC9 (Homo sapiens, UniProt O60503); details: 100 μM compound, transfected HEK293T lysate
T2 sequence (O60503 1-1353): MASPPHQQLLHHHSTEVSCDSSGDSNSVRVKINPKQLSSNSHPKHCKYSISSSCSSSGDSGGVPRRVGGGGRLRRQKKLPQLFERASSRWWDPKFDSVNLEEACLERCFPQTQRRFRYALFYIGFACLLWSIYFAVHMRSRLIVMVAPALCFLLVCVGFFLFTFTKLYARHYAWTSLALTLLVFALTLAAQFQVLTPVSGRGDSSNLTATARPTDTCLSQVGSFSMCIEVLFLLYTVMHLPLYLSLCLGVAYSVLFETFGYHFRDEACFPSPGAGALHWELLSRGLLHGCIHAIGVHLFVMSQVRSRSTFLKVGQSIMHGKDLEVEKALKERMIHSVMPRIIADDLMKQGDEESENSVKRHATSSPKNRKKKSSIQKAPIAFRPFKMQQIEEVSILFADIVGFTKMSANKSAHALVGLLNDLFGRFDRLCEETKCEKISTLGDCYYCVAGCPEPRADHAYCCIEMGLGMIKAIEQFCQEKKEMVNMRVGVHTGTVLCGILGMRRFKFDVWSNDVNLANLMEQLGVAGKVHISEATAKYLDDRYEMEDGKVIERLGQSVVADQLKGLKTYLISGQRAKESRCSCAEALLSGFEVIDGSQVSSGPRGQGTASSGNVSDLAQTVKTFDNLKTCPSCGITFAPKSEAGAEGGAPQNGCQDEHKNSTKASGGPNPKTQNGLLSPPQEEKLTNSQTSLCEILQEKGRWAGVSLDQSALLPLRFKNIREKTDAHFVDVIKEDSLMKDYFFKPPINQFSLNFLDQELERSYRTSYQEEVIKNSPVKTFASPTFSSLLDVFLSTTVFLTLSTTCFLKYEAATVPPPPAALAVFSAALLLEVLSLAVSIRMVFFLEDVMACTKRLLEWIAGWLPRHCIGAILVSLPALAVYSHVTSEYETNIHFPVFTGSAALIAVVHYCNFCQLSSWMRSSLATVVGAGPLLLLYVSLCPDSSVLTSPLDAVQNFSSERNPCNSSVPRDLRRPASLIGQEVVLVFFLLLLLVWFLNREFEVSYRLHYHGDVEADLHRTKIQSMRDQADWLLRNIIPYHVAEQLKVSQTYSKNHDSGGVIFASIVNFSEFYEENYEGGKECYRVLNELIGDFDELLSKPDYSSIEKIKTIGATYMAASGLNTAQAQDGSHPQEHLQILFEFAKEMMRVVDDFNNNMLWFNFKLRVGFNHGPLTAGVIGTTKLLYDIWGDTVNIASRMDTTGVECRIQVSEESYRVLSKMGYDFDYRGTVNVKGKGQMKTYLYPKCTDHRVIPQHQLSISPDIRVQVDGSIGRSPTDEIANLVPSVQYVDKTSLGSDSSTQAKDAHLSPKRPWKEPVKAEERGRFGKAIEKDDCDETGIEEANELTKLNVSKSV

[8] = target: T3, mammalian sAC (Homo sapiens, UniProt Q96PN6); test: Activity assay with purified, recombinant mammalian sAC; type: biochemical, human or rat; details: dose-response curve
T3 sequence (Q96PN6 1-469): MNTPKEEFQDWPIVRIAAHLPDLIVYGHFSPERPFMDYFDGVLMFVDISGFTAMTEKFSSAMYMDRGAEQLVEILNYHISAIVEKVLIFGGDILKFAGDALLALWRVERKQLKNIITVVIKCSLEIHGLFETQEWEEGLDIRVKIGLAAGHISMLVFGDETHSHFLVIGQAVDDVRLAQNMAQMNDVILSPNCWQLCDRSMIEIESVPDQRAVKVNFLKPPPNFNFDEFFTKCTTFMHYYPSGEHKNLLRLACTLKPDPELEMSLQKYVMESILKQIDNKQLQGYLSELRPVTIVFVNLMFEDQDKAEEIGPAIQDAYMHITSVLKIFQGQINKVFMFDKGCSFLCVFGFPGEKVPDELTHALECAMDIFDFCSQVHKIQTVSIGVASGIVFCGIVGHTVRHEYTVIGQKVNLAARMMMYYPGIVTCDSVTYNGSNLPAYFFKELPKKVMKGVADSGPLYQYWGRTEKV

[9] = target: AC2 (Homo sapiens, UniProt Q08462)
Chain of AC2 (Q08462 whole entry): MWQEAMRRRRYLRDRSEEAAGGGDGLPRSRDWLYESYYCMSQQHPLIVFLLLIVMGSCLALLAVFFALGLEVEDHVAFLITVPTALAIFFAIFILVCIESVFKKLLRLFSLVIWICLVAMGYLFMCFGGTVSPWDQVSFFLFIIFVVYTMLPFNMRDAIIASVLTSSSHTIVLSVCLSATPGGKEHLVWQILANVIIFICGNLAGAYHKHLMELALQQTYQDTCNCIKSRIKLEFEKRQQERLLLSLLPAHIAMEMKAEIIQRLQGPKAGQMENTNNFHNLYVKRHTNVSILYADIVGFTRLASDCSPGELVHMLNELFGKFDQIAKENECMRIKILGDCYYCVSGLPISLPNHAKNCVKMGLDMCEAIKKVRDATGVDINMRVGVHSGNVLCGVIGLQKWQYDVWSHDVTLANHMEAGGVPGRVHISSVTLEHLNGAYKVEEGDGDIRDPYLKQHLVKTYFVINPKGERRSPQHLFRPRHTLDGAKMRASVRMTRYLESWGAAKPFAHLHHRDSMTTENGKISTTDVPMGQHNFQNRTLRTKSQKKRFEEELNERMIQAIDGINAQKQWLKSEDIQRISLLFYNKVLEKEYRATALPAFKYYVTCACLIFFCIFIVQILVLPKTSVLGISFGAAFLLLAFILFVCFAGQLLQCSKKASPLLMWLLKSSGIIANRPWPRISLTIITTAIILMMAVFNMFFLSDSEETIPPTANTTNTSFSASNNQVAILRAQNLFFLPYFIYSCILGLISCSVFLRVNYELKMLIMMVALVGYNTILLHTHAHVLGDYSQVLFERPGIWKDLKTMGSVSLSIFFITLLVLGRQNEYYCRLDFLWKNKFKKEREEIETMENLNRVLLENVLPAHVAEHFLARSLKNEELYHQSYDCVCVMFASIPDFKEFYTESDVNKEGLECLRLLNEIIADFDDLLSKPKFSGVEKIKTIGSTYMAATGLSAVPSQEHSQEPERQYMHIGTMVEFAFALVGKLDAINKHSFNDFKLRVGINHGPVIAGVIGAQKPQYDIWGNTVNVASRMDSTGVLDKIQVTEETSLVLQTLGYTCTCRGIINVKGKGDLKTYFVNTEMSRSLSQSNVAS

[10] = target: T1, CyaC; test: biochemical; details: read-out: IC50 against CyaC in vitro (estimated)

T1 sequence (O32393 998-1202 limits assumed): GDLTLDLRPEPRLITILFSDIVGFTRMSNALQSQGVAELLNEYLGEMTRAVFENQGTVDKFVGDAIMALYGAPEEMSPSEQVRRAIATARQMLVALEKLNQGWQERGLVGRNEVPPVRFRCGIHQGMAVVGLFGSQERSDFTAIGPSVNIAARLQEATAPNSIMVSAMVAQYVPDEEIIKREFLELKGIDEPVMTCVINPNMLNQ

C[C@H]1O[C@@H](n2cnc3c(N)ncnc32)C[C@@H]1OP(=O)(O)OP(=O)(O)OP(=O)(O)O [2′,5′-didesoxy-3′-ATP]
IC50 [1]: 0.7 µM

C[C@]12CC[C@@H]3c4cc(O)c(O)cc4CC[C@H]3[C@@H]1CC[C@@H]2O [Compound 1, 2-hydroxy-17β-estradiol]
Mode of inhibition with respect to ATP (reported) [2]: noncompetitive inhibitor

C[C@]12CC[C@H]3[C@@H](CCC4=CC(=O)CC[C@@]43C)[C@@H]1CC[C@@H]2C(=O)COS(=O)(=O)c1ccc(Br)cc1 [Compound 2, 3,20-dioxopregn-4-en-21-yl 4-bromobenzenesulfonate]
Inhibition of forskolin-stimulated AC activity in HEK293T whole cell extracts [3]: no significant inhibition | Vmax of CyaC ([4]; 1 μM inhibitor): 0.38 nmol/mg/min | Vmax of CyaC ([4]; […] inhibitor): 0.29 nmol/mg/min | Vmax of CyaC ([4]; […] μM inhibitor): 0.08 nmol/mg/min | Mode of inhibition with respect to ATP ([4]; various substrate concentrations at fixed inhibitor amounts): noncompetitive inhibitor | Inhibition of AC1 activity [5]: did not significantly inhibit | Inhibition of AC5 activity [6]: did not significantly inhibit | Effect on basal AC9 activity [7]: did not appreciably affect

O=C(O)c1cc2c(cc1S(=O)(=O)O)C1C(C3C2C2(Cl)C(Cl)=C(Cl)C3(Cl)C2(Cl)Cl)C2(Cl)C(Cl)=C(Cl)C1(Cl)C2(Cl)Cl (stereo not drawn) [Compound 3, 1,2,3,4,5,6,7,8,13,13,14,14-dodecachloro-1,4,4a,4b,5,8,8a, 12b-octahydro-11-sulfo-1,4:5,8-dimethanotriphenylene-10-carboxylic acid]
Hill coefficient for sAC inhibition [8]: 2.0 | Inhibition of AC1 activity [5]: only moderate inhibition | Inhibition of basal AC2 activity ([9]; 100 μM compound, basal, transfected HEK293T lysate): only moderate inhibition | Effect on AC2 in the presence of forskolin ([9]; in the presence of forskolin, data not shown): stimulation | Inhibition of AC5 activity [6]: only moderate inhibition | Effect on basal AC9 activity [7]: only moderate inhibition

BrC(c1cccc2ccccc12)c1cccc2ccccc12 [Compound 4, 1-(bromo(1-naphthyl)methyl)naphthalene]
potency estimated from few doses [10]: ~200 µM

C[C@H]1[C@H](C)CC[C@]2(C(=O)O)CC[C@]3(C)C(=CC[C@@H]4[C@@]5(C)C[C@@H](O)[C@H](O)[C@@](C)(CO)[C@@H]5[C@H](O)C[C@]43C)[C@H]12 [Compound 8, 2,3,6,23-tetrahydroxyurs-12-en-28-oic acid]
potency estimated from few doses [10]: ~100 µM
